According to the NIST ThermoML archive (doi:10.1016/j.jct.2016.05.019):
Values joined by “and” are separate entries in the source; they are usually repeats but may differ in a detail not shown here. Equal entries are not always repeated.

Conditions: Liquid; for mass density: Bellows volumetry

CCC(C)C [2-methylbutane]
Conditions	mass density
280 K, 1000 kPa	633.54 kg/m3
280 K, 2000 kPa	634.7 kg/m3
280 K, 3000 kPa	635.86 kg/m3
280 K, 5000 kPa	638.02 kg/m3
280 K, 10000 kPa	643.42 kg/m3
280 K, 20000 kPa	653.11 kg/m3
280 K, 30000 kPa	661.46 kg/m3
280 K, 40000 kPa	669.03 kg/m3
280 K, 50000 kPa	675.94 kg/m3
280 K, 60000 kPa	682.44 kg/m3
280 K, 70000 kPa	688.43 kg/m3
280 K, 80000 kPa	694.03 kg/m3
280 K, 90000 kPa	699.3 kg/m3
280 K, 100000 kPa	704.35 kg/m3
280 K, 120000 kPa	713.77 kg/m3
280 K, 140000 kPa	722.2 kg/m3
280 K, 160000 kPa	729.89 kg/m3
280 K, 180000 kPa	737.33 kg/m3
280 K, 200000 kPa	744.07 kg/m3
298.14 K, 10200 kPa	627.35 kg/m3
298.14 K, 40600 kPa	656.53 kg/m3
298.14 K, 101400 kPa	694.83 kg/m3
298.14 K, 177400 kPa	727.57 kg/m3
300 K, 1000 kPa	613.77 kg/m3
300 K, 2000 kPa	615.18 kg/m3
300 K, 3000 kPa	616.54 kg/m3
300 K, 5000 kPa	619.26 kg/m3
300 K, 10000 kPa	625.53 kg/m3
300 K, 20000 kPa	636.61 kg/m3
300 K, 30000 kPa	646.19 kg/m3
300 K, 40000 kPa	654.71 kg/m3
300 K, 50000 kPa	662.36 kg/m3
300 K, 60000 kPa	669.45 kg/m3
300 K, 70000 kPa	675.91 kg/m3
300 K, 80000 kPa	682.03 kg/m3
300 K, 90000 kPa	687.64 kg/m3
300 K, 100000 kPa	692.98 kg/m3
300 K, 120000 kPa	702.76 kg/m3
300 K, 140000 kPa	711.75 kg/m3
300 K, 160000 kPa	719.81 kg/m3
300 K, 180000 kPa	727.5 kg/m3
300 K, 200000 kPa	734.71 kg/m3
320 K, 199 kPa	592.04 kg/m3
320 K, 210 kPa	592.07 kg/m3
320 K, 315 kPa	592.25 kg/m3
320 K, 502 kPa	592.61 kg/m3
320 K, 1000 kPa	593.5 kg/m3 and 592.72 kg/m3
320 K, 2000 kPa	595.25 kg/m3 and 594.35 kg/m3
320 K, 3000 kPa	596.07 kg/m3
320 K, 5000 kPa	599.33 kg/m3
320 K, 10000 kPa	606.77 kg/m3
320 K, 20000 kPa	619.58 kg/m3
320 K, 30000 kPa	630.46 kg/m3
320 K, 40000 kPa	639.89 kg/m3
320 K, 50000 kPa	648.39 kg/m3
320 K, 60000 kPa	656.03 kg/m3
320 K, 70000 kPa	662.98 kg/m3
320 K, 80000 kPa	669.62 kg/m3
320 K, 90000 kPa	675.83 kg/m3
320 K, 100000 kPa	681.48 kg/m3
320 K, 120000 kPa	691.83 kg/m3
320 K, 140000 kPa	701.5 kg/m3
320 K, 160000 kPa	710.26 kg/m3
320 K, 180000 kPa	718.37 kg/m3
320 K, 200000 kPa	725.65 kg/m3
323.13 K, 49030 kPa	645.8 kg/m3
323.13 K, 98070 kPa	678.79 kg/m3
323.13 K, 147100 kPa	703.2 kg/m3
323.13 K, 196130 kPa	722.79 kg/m3
340 K, 338 kPa	569.61 kg/m3
340 K, 420 kPa	569.78 kg/m3
340 K, 513 kPa	570.01 kg/m3
340 K, 1000 kPa	571.14 kg/m3 and 570.66 kg/m3
340 K, 2000 kPa	572.85 kg/m3
340 K, 3000 kPa	574.98 kg/m3
340 K, 5000 kPa	578.97 kg/m3
340 K, 10000 kPa	587.99 kg/m3
340 K, 20000 kPa	602.92 kg/m3
340 K, 30000 kPa	615.28 kg/m3
340 K, 40000 kPa	625.82 kg/m3
340 K, 50000 kPa	635.12 kg/m3
340 K, 60000 kPa	643.45 kg/m3
340 K, 70000 kPa	651.03 kg/m3
340 K, 80000 kPa	658.05 kg/m3
340 K, 90000 kPa	664.53 kg/m3
340 K, 100000 kPa	670.52 kg/m3
340 K, 120000 kPa	681.53 kg/m3
340 K, 140000 kPa	691.52 kg/m3
340 K, 160000 kPa	700.49 kg/m3
340 K, 180000 kPa	708.89 kg/m3
340 K, 200000 kPa	716.61 kg/m3
360 K, 550 kPa	544.65 kg/m3
360 K, 608 kPa	544.68 kg/m3
360 K, 609 kPa	544.84 kg/m3
360 K, 702 kPa	545.09 kg/m3
360 K, 1000 kPa	545.87 kg/m3 and 545.89 kg/m3
360 K, 2000 kPa	548.79 kg/m3
360 K, 3000 kPa	551.5 kg/m3
360 K, 5000 kPa	556.57 kg/m3
360 K, 10000 kPa	567.71 kg/m3
360 K, 20000 kPa	585.18 kg/m3
360 K, 30000 kPa	599.16 kg/m3
360 K, 40000 kPa	610.91 kg/m3
360 K, 50000 kPa	621.15 kg/m3
360 K, 60000 kPa	630.27 kg/m3

340 K
Conditions	mass density [kg/m3]	vapor or sublimation pressure [kPa]
–	569.21	328
